Measurements from patent publication US7915304B2, “Phenyl substituted maleimides as medicaments for blocking degenerative tissue damages by inhibiting MPT” (Congenia S.r.l., priority 2006, dated 2011).

The molecules below were run on permeability transition pore (PTP) (assay: Mitochondrial in vitro assay: calcium retention capacity (CRC) of isolated mouse liver mitochondria). Conditions: ratio of calcium required to open the PTP with vs without compound, 10 μM Ca2+ pulses at 1 min intervals, compound added 1 min before, 25° C.
Format: biochemical
Description: The mitochondrial in vitro assay is based on the characteristics of mitochondrial organelles which allow the study of mitochondrial function in reductive sub-cellular in vitro systems. It is possible to investigate many mitochondrial processes in isolated mitochondrial suspension obtained from different tissues.
The ability of isolated mitochondria to uptake calcium from outside is a direct measure of mitochondrial integrity and functioning. Indeed MPT impairs the ability of mitochondria to upload calcium through specific channels that require an intact organelle structure. The assay takes advantage of this phenomenon to evaluate the ability of the invention compounds to interfere with MPT on isolated mitochondria.
Mitochondria were prepared from the livers of male 129 or C57/B6 mouse weighing 20-25 g. The animals were sacrificed by cervical dislocation. The livers were isolated and placed in ice-cold 0.25 M sucrose, 10 mM Tris-HCl, 0.1 mM ethylene-bis(oxoethylenenitrilo)tetraacetic acid (EGTA), pH 7.4 The livers were rinsed three-four times with ice-cold medium, minced with scissor and passed through a manual Potter homogenizer kept in an ice-water bath. The homogenate was diluted to 50 ml per liver, and unbroken cells and nuclei were sedimented by centrifugation at 900×g in a Beckman Avanti™ J-25 refrigerated centrifuge kept at 4° C. for 10 min. The supernatant was carefully decanted and centrifuged at 7000×g in the same centrifuge for 10 min. The supernatant was discarded and the mitochondrial pellets were carefully resuspended in ice-cold isolation medium and spun as above.
The resulting mitochondrial pellets were resuspended in a small amount of ice-cold isolation medium, and stored on ice. Mitochondria protein content was determined with the biuret assay.
The mitochondrial Ca^2+ retention capacity (CRC) is a sensitive measure of the propensity of mitochondria to open the PTP after Ca^2+ uptake. Since mitochondria are bidirectionally permeable to Ca^2+ owing to the presence of a Ca^2+ uniporter in their inner membrane, the mitochondrial membrane potential (Δψm) is responsible for the Ca^2+ accumulation in the mitochondrial matrix and consequent Ca^2+ gradient. Any drop in Δψm, such as depolarization caused by H^+ influx during PTP opening, is expected to result in a redistribution of Ca^2+ between the intra and extra-mitochondrial spaces, during which Ca^2+ uses all available routes through the mitochondrial membrane.
CRC of mitochondrial preparations was assessed fluorimetrically in the presence of the fluorescent Ca^2+ indicator Calcium Green-5N (excitation-emission: 505-535 nm) with a Perkin-Elmer LS 55 spectrofluorimeter equipped with a magnetic stirrer and thermostatic control set to 25° C. (Ichas, F.; Jouaville, L. S.; Mazat, J. P. Mitochondria are excitable organelles capable of generating and conveying electrical and calcium signal. Cell., 1997, 89, 1145-1153). Calcium Green-5N is a fluorometric probe that is not permeable to membranes and when added to a mitochondrial suspension is able to detect the presence of Ca^2+ in the extra-mitochondrial medium. Mitochondria were loaded with a train of 10 μM Ca^2+ pulses at 1 min intervals. Under these conditions mitochondria took up actively and retained Ca^2+ until a point at which mitochondria underwent a fast process of Ca^2+ release due to the opening of the PTP. The number of calcium pulses (final concentration of calcium) required to open the PTP is the mitochondrial CRC. This Ca^2+ loading protocol thus provides a convenient and sensitive assay for measuring PTP opening and it is used to assess the ability of the compounds of the invention to inhibit PTP opening. Compounds were added directly to the mitochondrial solution 1 min. prior to the start of calcium pulsing and the number of calcium pulses required to open the PTP was determined. […]

Q: How did the CRC efficacy turn out when `O=C1C=C(c2ccc(F)cc2)C(=O)N1c1cccc(Cl)c1` [Example 2, 1-(3-chlorophenyl)-3-(4-fluorophenyl)-pyrrole-2,5-dione] was run?
A: Its CRC efficacy is 2.5.

Q: Which CRC efficacy does the source give for `O=C1C=C(c2cccc(F)c2)C(=O)N1c1cccc(Cl)c1` [Example 9, 1-(3-chlorophenyl)-3-(3-fluorophenyl)-pyrrole-2,5-dione] here?
A: Its CRC efficacy is 2.75.

Q: Which CRC efficacy does the source give for `O=C1C=C(c2cccc(F)c2)C(=O)N1c1ccc(F)c(Cl)c1` [Example 10, 1-(3-chloro-4-fluorophenyl)-3-(3-fluorophenyl)-pyrrole-2,5-dione] here?
A: The CRC efficacy was 2.27.

Q: With `O=C1C=C(c2ccccc2F)C(=O)N1c1cccc(Cl)c1` [Example 13, 1-(3-chlorophenyl)-3-(2-fluorophenyl)-pyrrole-2,5-dione] as the molecule, how does the CRC efficacy read?
A: The CRC efficacy was 2.

Q: Which CRC efficacy does the source give for `O=C1C=C(c2ccccc2F)C(=O)N1c1ccc(F)c(Cl)c1` [Example 14, 1-(3-chloro-4-fluorophenyl)-3-(2-fluorophenyl)-pyrrole-2,5-dione] here?
A: Its CRC efficacy is 2.22.

Q: With `O=C1C=C(c2ccccc2)C(=O)N1c1cccc(Br)c1` [Example 20, 1-(3-bromophenyl)-3-phenyl-pyrrole-2,5-dione] as the molecule, how does the CRC efficacy read?
A: The CRC efficacy was 2.33.

Q: For `Cc1cccc(N2C(=O)C=C(c3ccccc3)C2=O)c1` [Example 22, 1-(3-methylphenyl)-3-phenyl-pyrrole-2,5-dione], which CRC efficacy is on record?
A: The CRC efficacy was 2.57.

Q: How did the CRC efficacy turn out when `O=C1C=C(c2ccccc2)C(=O)N1c1cccc(C(F)(F)F)c1` [Example 31, 1-(3-trifluoromethylphenyl)-3-phenyl-pyrrole-2,5-dione] was run?
A: Its CRC efficacy is 2.

Q: How did the CRC efficacy turn out when `O=C1C=C(c2ccc(O)cc2)C(=O)N1c1cccc(Cl)c1` [Example 36, 1-(3-chlorophenyl)-3-(4-hydroxyphenyl)-pyrrole-2,5-dione] was run?
A: Its CRC efficacy is 1.87.

Q: Which CRC efficacy does the source give for `COc1ccc(C2=CC(=O)N(c3cccc(Cl)c3)C2=O)cc1` [Example 48, 1-(3-chlorophenyl)-3-(4-methoxyphenyl)-pyrrole-2,5-dione] here?
A: The CRC efficacy was 2.11.

Q: How did the CRC efficacy turn out when `Cc1cccc(N2C(=O)C=C(c3ccc(Cl)cc3)C2=O)c1` [Example 53, 1-(3-methylphenyl)-3-(4-chlorophenyl)-pyrrole-2,5-dione] was run?
A: The CRC efficacy was 2.17.

Q: Which CRC efficacy does the source give for `O=C1C=C(c2ccc(Cl)cc2)C(=O)N1c1cccc(Cl)c1` [Example 55, 1-(3-chlorophenyl)-3-(4-chlorophenyl)-pyrrole-2,5-dione] here?
A: The CRC efficacy was 2.33.

Q: How did the CRC efficacy turn out when `Cc1ccc(C2=CC(=O)N(c3cccc(Cl)c3)C2=O)cc1` [Example 57, 1-(3-chlorophenyl)-3-(4-methylphenyl)-pyrrole-2,5-dione] was run?
A: Its CRC efficacy is 2.66.

Q: Which CRC efficacy does the source give for `COc1ccc(Cl)cc1N1C(=O)C=C(c2ccccc2)C1=O` [Example 58, 1-(5-chloro-2-methoxyphenyl)-3-phenyl-pyrrole-2,5-dione] here?
A: Its CRC efficacy is 1.86.

Q: Which CRC efficacy does the source give for `O=C1C=C(c2ccccc2)C(=O)N1c1ccc(F)c(Cl)c1` [Example 61, 1-(3-chloro-4-fluorophenyl)-3-phenyl-pyrrole-2,5-dione] here?
A: The CRC efficacy was 2.83.

Q: Which CRC efficacy does the source give for `O=C1C=C(c2ccccc2)C(=O)N1c1cccc(Cl)c1` [Example 63, 1-(3-chlorophenyl)-3-phenyl-pyrrole-2,5-dione] here?
A: The CRC efficacy was 2.5.

What follows are molecules tested on retinal neo-vascularisation (assay: Mouse retinopathy of prematurity (ROP) model of ischemia-induced retinal neo-vascularisation). Conditions: ROP mice, intravitreal injection at P12, approximately 1 or 2 or 4 microM in the vitreum, analysis at p17, vs DMSO vehicle.
Format: in vivo
Procedure: Retinal neo-vascularisation was assessed in a mouse retinopathy of prematurity (ROP) model of ischemia-induced retinal neo-vascularisation. In rodents, retinal vascularisation is generally completed by post-natal day 14 (P14). Oxygen treatment during the second week of life partially causes vaso-obliteration of immature retinal vessels around the optic disk and it blocks subsequent vascular development of the deep retinal layers. When oxygen treatment is stopped, the ischemia of the retina triggers abnormal vessel growth, i.e., retinal neovascularisation.
At postnatal day 7 (P7), newborn mice were exposed to 75% O2 for 5 days in an oxygen incubator. […] Oxygen concentration was monitored by an Oxygen Monitor (Miniox III; Catalyst Research, MD). […]
At day 12 (P12) animals were removed from the oxygen exposure chamber and injected intra-vitreously with a Hamilton syringe with compounds or vehicle solution. […] Flat-mounted retinas were photographed by fluorescence microscopy (Zeiss Axioplan Thornwood, N.Y.) and by computer-imaging (KS300, Kontron Electronik GmbH, Germany) retinal images captured. […]
Eyes from the same groups, at p17, were fixed and sections were prepared and stained with hematoxylin and eosin to quantify the amount of endothelial cells developed. […]

Q: How did the “neovascularization, fluorangiographic analysis” value turn out when `O=C1C=C(c2ccccc2)C(=O)N1c1cccc(Cl)c1` [Example 63, 1-(3-chlorophenyl)-3-phenyl-pyrrole-2,5-dione] was run?
A: The value was “significant reduction”.

Same assay, conditions: ROP mice, intravitreal injection at P12, eyes at p17, hematoxylin and eosin sections, FIG. 1

Q: For `O=C1C=C(c2ccccc2)C(=O)N1c1cccc(Cl)c1` [Example 63, 1-(3-chlorophenyl)-3-phenyl-pyrrole-2,5-dione], which “number of endothelial cells present in the eye (per section)” value is on record?
A: Its value is “significantly reduces”.

What follows are molecules tested on experimental autoimmune encephalomyelitis (EAE) (assay: Experimental autoimmune encephalomyelitis (EAE) model of multiple sclerosis). Conditions: 5 mg/kg intraperitoneally every day from day 4; approximately 30% of the untreated EAE mice developed it.
Format: in vivo, mouse
Description: Experimental autoimmune encephalomyelitis (EAE) is possibly the best animal model to study demyelinating diseases of the central nervous system (CNS) such as multiple sclerosis (MS) Since the first classical studies EAE has been an invaluable tool for dissecting mechanisms of the immune response against self-antigens within the CNS, as well as to test new therapies for the treatment of autoimmune diseases. Rodents are susceptible to EAE. Depending upon species, antigens and mode of sensitisation, EAE can have a monophasic acute course or a chronic relapsing, and even a primarily progressive course that mimics human MS. Acute models of EAE allow faster experimentation and observation, whereas chronic models allow wider observation, such as preventive versus therapeutic treatments.
Seven week-old C57 black/6N female mice were immunized with an emulsion of mycobacterium tubercolosis and the peptide spanning the sequence 35aa-55aa of the myelin oligodendrocyte glycoprotein (MOG) dissolved in phosphate buffer and Freud adjuvant. Mice were injected subcutaneously, in three different sites, with a total of 0.3 ml of emulsion. Immediately after the immunization mice were injected intravenously with 0.1 ml of pertussin toxin ([…]). […]
Starting from day 10 after the immunization mice were evaluated daily for weight loss and locomotive defects. […]

Q: For `O=C1C=C(c2ccccc2)C(=O)N1c1cccc(Cl)c1` [Example 63, 1-(3-chlorophenyl)-3-phenyl-pyrrole-2,5-dione], which “treated mice developing inferior limb paresis after 20 days” value is on record?
A: The value was “no one”.

Same assay, conditions: C57 black/6N female mice, MOG 35-55 immunization, 5 mg/kg intraperitoneally every day from day 4, FIG. 2

Q: `O=C1C=C(c2ccccc2)C(=O)N1c1cccc(Cl)c1` [Example 63, 1-(3-chlorophenyl)-3-phenyl-pyrrole-2,5-dione] was tested. Which “development of the disease (average clinical score, non parametric scale 0-5)” value did it give?
A: Its value is “significantly prevented”.
